Results reported in patent publication US20240398783A1, “Compounds and Pharmaceutical Compositions Comprising Inhibitors of Amyloid Peptide Interactions with Glycosaminoglycans, Methods of Treatment and Use Thereof” (Gismo Therapeutics, Inc., priority 2021, published 2024).
Structures can show the parent of a compound that is named as a salt. Where two headings read alike, the source gives them in different places.

How the values were obtained:
[1] = target: Alpha-Synuclein Protofibril binding to purified human brain membranes (Homo sapiens, UniProt P37840); assay: Inhibition of protofibrillar alpha-synuclein binding to purified human brain cell membranes (ELISA); conditions: Alpha-Synuclein/Membrane Activity (IC-50), alpha-synuclein protofibrils
Description: (§1) Purified human brain cell membranes were prepared by differential centrifugation as follows. Five grams of frozen human brain postmortem tissue (obtained from University of Kentucky Alzheimer's Disease Center Tissue Bank) was homogenized in 50 ml HEPES-Buffered sucrose (0.32M sucrose, 4 mM HEPES pH7.4, protease inhibitors) with a motor driven glass-teflon homogenizer. After removing nuclear and cell debris by centrifugation of homogenates at 1,000×g for 10 min at 4 degree Celsius, post-nuclear supernatant was centrifuged at 100,000×g for 30 minutes to yield the crude membrane pellet. Crude membrane pellet was re-suspended in 0.32M sucrose, then centrifuged again at 100,000×g for 30 minutes to yield washed membrane pellet. Membrane pellet was resuspended in sterile PBS (pH7.4), quickly frozen, and kept in aliquots at −80 degrees Celsius. This preparation contains human brain cell membranes. Protein concentration was measured with BCA protein assay kit (Pierce Cat. No. 23227). Purified brain membranes were diluted to 0.01 mg/ml in PBS (pH 7.4) and then added to a 96 well polystyrene ELISA plate (NUNC Cat. No. 449824; 100 μl per well). Plates were incubated Over Night (ON) at 4 degrees Celsius. Following the incubation, the plate was washed consecutively, by immersion, with de-ionized water and PBS (pH 7.4). The ELISA plate was then blocked with nonfat milk (2%, 200 μl per well) for 2 hours at Room Temperature (RT). Following blocking, the plate was washed with de-ionized water then PBS (pH 7.4). GBAPs were dissolved and diluted in PBS (pH 6.5, supplemented with 0.1% BSA) at desired concentrations, added to the ELISA plates coated with brain membranes (100 μl per well) and incubated for 2 hours at RT with gentle shaking. Following incubation, the plate was washed with de-ionized water and three times with PBS (pH 6.5) plus Tween. Bound GBAP was detected by a monoclonal antibody specific for that GBAP, followed by incubation with secondary antibody conjugated to horseradish peroxidase (HRP). Antibody was diluted in PBS (pH6.5 supplemented with 1% BSA). Following each incubation with antibody, the plate was washed with de-ionized water and three times with PBS (pH6.5) wash buffer containing 0.1% Tween. The peroxidase substrate chromogen, TMB (Dako Cat. No. S1599) was added (100 μl per well) to the ELISA plate and incubated at room temperature. After 5 minutes ELISA Stop Solution (hydrochloric acid 1N, sulfuric acid 3N) was added (100 μl per well) to stop the peroxidase catalyzed colorimetric reaction. The Optical Density of the samples was measured at 450 nm using an ELISA plate reader (BioTek Synergy H1). Following color development, the % inhibition compared to control was determined. IC-50s were calculated using GraphPad Prism software.
The assay was performed as described in Example 49, with the following modifications. Following to coating the plates with human brain membranes, plates were washed as described. The compounds were dissolved in DMSO at 10 mM final concentration and further diluted prior to assay. DMSO concentration in the screening well was up to 2%. Individual compounds were co-incubated with alpha-synuclein on plates coated with brain membranes. Protofibrillar Alpha-synuclein were prepared as described in Example 45. Protofibrillar Alpha-synuclein diluted in PBS (pH 6.5, supplemented with BSA, 0.1%) was added to the ELISA plate (100 μl per well) and incubated for 2 hours at RT with gentle shaking. Following the incubation, the plate was washed with de-ionized water and three times with PBS (pH 6.5) plus Tween. Bound alpha-synuclein was detected by Anti-Alpha-synuclein Monoclonal Antibody 211 (Santa Cruz Cat. No. sc-12767), followed by secondary anti-IgG antibody conjugated to HRP (R&D System, Cat. No. HAF007). Following to color development with TMB, as described in Example 49, the Optical Density of the samples was measured at 450 nm using an ELISA plate reader. […]

[2] = target: TDP-43 binding to purified human brain membranes (Homo sapiens, UniProt Q13148); assay: Inhibition of TDP-43 binding to purified human brain cell membranes (ELISA); conditions: TDP-43, purified human brain membranes
Description: as §1
The assay was performed as described in Example 49, with the following modifications. Following to coating the plates with purified human brain cell membranes, plates were washed as described. The compounds were dissolved in DMSO at 10 mM final concentration and further diluted prior to assay. DMSO concentration in the screening well was up to 2%. Individual compounds were co-incubated with TDP-43 on plates coated with brain membranes. TDP43 from R&D System (Cat. No. AP-190) was quickly frozen and kept in aliquots at −80 degrees Celsius. TDP-43 dissolved in PBS (pH 6.5, supplemented with BSA, 0.1%) was added to the ELISA plate (100 μl per well) and incubated for 2 hours at RT with gentle shaking. Following the incubation, the plate was washed with de-ionized water and three times with PBS (pH 6.5) plus Tween. Bound TDP-43 was detected by Anti-TDP43 Monoclonal Antibody (R&D System Cat. No. MAB7778), followed by secondary anti-IgG antibody conjugated to HRP (R&D System, Cat. No. HAF007). Following to color development with TMB, as described in Example 49, the Optical Density of the samples was measured at 450 nm using an ELISA plate reader. […]

[3] = TDP43/Membrane Activity (IC-50)

Sequence of TDP-43 binding to purified human brain membranes (Q13148 whole entry): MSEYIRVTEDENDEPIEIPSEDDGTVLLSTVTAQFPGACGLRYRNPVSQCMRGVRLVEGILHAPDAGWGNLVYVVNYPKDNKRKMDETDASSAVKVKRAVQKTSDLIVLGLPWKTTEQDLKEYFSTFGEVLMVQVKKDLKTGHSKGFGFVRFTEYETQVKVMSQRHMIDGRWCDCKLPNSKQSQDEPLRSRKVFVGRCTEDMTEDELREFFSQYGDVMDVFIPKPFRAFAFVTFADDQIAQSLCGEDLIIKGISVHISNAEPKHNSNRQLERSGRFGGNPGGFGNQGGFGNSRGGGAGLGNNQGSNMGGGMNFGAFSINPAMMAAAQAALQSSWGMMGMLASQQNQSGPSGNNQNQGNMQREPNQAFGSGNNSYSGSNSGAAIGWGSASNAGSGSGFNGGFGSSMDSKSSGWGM

Compound | IC50 [1] [µM] | IC50 [2, 3] [µM] | IC50 ([2]; read-out: TDP43/Membrane Activity (IC-50)) [µM]
CC(=NNc1ccnc2cc(Cl)ccc12)c1ccc(-n2ccnc2)cc1 [Compound 36, 4-(2-(1-(4-(1H-imidazol-1-yl)phenyl)ethylidene)hydrazineyl)-7-chloroquinoline phosphate] | 9.46 | 48.6 | –
C[N+](C)(C)Cc1ccc(/C=N\Nc2ccnc3ccc(Cl)cc23)cc1 [Compound 4, (Z)-1-(4-((2-(6-chloroquinolin-4-yl)hydrazineylidene)methyl)phenyl)—N,N,N-trimethylmethanaminium iodide] | 10.7 | – | –
Cc1ncn(-c2ccc(Nc3ncnc4cc(Cl)ccc34)cn2)c1C [Compound 25, 7-chloro-N-(6-(4,5-dimethyl-1H-imidazol-1-yl)pyridin-3-yl)quinazolin-4-amine] | 3.4 | 11.5 | –
C(=N\Nc1ccc2c3c(cccc13)CC2)/c1ccc(-n2ccnc2)cc1 [Compound 8, (E)-1-(4-((2-(1,2-dihydroacenaphthylen-5-yl)hydrazineylidene)methyl)phenyl)-1H-imidazole] | – | 25.2 | –
Clc1ccc2c(Nc3ccc(-n4cncn4)nc3)ccnc2c1 [Compound 44, N-(6-(1H-1,2,4-triazol-1-yl)pyridin-3-yl)-7-chloroquinolin-4-amine] | 22.3 | 26.2 | –
C/C(=N\Nc1ncnc2cc(Cl)ccc12)c1ccc(-n2cc[n+](C)c2)nc1 [Compound 17, (E)-1-(5-(1-(2-(7-chloroquinazolin-4-yl)hydrazineylidene)ethyl)pyridin-2-yl)-3-methyl-1H-imidazol-3-ium iodide phosphoric acid salt] | 13.1 | 22.5 | –
Cc1ncn(-c2ncc(Nc3ncnc4cc(Cl)ccc34)cc2O)c1C [Compound 40, 5-((7-chloroquinazolin-4-yl)amino)-2-(4,5-dimethyl-1H-imidazol-1-yl)pyridin-3-ol phosphoric acid salt] | 34.5 | 5.28 | –
C/C(=N\Nc1nncc2cc(Cl)ccc12)c1ccc(-n2cc(C)nc2C)nc1 [Compound 24, (E)-6-chloro-1-(2-(1-(6-(2,4-dimethyl-1H-imidazol-1-yl)pyridin-3-yl)ethylidene)hydrazineyl)phthalazine] | 4.03 | – | 4
Fc1ccc2c(N/N=C/c3ccc(-n4ccnc4)cc3)ccnc2c1 [Compound 5, (E)-4-(2-(4-(1H-imidazol-1-yl)benzylidene)hydrazinyl)-7-fluoroquinoline] | – | 14.1 | –
Fc1ccc2c(N/N=C/c3ccc(CN4CCOCC4)cc3)ccnc2c1 [Compound 6, (E)-4-(4-((2-(7-fluoroquinolin-4-yl)hydrazono)methyl)benzyl)morpholine] | 3.36 | – | –
CCN1CCN(c2ccc(Nc3ccnc4cc5ccccc5cc34)cc2)CC1 [Compound 39, N-(4-(4-ethylpiperazin-1-yl)phenyl)benzo[g]quinolin-4-amine] | 45.8 | – | –
CN1CCN(Cc2ccc(/C=N/Nc3ccnc4cc(Cl)ccc34)cc2)CC1 [Compound 7, (E)-7-chloro-4-(2-(4-((4-methylpiperazin-1-yl)methyl)benzylidene)hydrazinyl)quinolone] | 42.1 | – | –
COc1cc2nccc(N/N=C/c3ccc(-n4ccnc4)c(OC)c3)c2cc1OC [Compound 13, (E)-4-(2-(4-(1H-imidazol-1-yl)-3-methoxybenzylidene)hydrazineyl)-6,7-dimethoxyquinoline phosphate] | 4.03 | – | –
C/C(=N\Nc1ncnc2cc(F)ccc12)c1ccc(-n2cc[n+](C)c2)nc1 [Compound 26, (E)-1-(5-(1-(2-(7-fluoroquinazolin-4-yl)hydrazineylidene)ethyl)pyridin-2-yl)-3-methyl-1H-imidazol-3-ium phosphoric acid salt] | – | 27.2 | –
Fc1cc(/C=N/Nc2ccnc3cc(Cl)ccc23)ccc1-n1ccnc1 [Compound 35, (E)-7-chloro-4-(2-(3-fluoro-4-(1H-imidazol-1-yl)benzylidene)hydrazineyl)quinoline hydrochloride] | – | 13.1 | –
